Experimental findings from patent publication US20030212078A1, “Topical administration of pharmacological compositions for non-systemic treatment of pruritus” (priority 2003, published 2003) are described below.

The structures appear in SMILES notation.

Data set [1] relates to patients with pruritus associated with atopic dermatitis. Conditions: human, in vivo. How it is done:
In another small uncontrolled and unblinded trial, one group of patients with pruritus associated with atopic dermatitis was treated with a spray (aqueous buffered solution of 40 mg/ml hydroxyzine hydrochloride), which was topically applied to an area of the patients' skin affected by atopic dermatitis. The patients were instructed to spray about 0.1 ml (three pump actions of the manually operated spray bottle) of the composition onto an area of about 10 cm^2 affected by symptomatic itching for up to 5 applications per day for a period of two weeks. A second group of group of patients with pruritus associated with atopic dermatitis was treated with a cream (W/O emulsion containing 2% (wt) hydroxyzine hydrochloride), which was topically applied to an area of the patients' skin affected by atopic dermatitis. The patients were instructed to massage a small portion (about 0.2 gram) into an area of about 10 cm^2 affected by symptomatic itching for up to 5 applications per day for a period of two weeks.

Data set [2] deals with patients with pruritus (neurodermatitis; insect bite). Nature of the data set: Small, uncontrolled and unblinded trial of hydroxyzine*HCl skin cream in two patients with pruritus. The class given is in vivo, human. To be noted: skin cream comprising 5% (by weight) hydroxyzine*HCl, both patients. Here is the method:
In a small, uncontrolled and unblinded trial, two patients with pruritus were treated with a skin cream comprising 5% (by weight) hydroxyzine*HCl. The first patient was diagnosed with neurodermatitis (a non-allergic condition), while the second patient was diagnosed with an insect bite (an allergic condition).

Consider `CN1CCC(=C2c3ccccc3C=Cc3ccccc32)CC1` [cyproheptadine], for which the “patients who experienced weight gain of at least 4%” value in data set [1] (2 months) is listed as 5/15.

As to `Cl.Cl.OCCOCCN1CCN(C(c2ccccc2)c2ccc(Cl)cc2)CC1` (centres unmarked) [hydroxyzine, 1-(p-chlorobenzhydryl) 4-[2-(2-hydroxyethoxy)-ethyl] piperazine dihydrochloride], in data set [1] (2 weeks), the “patients who experienced drowsiness” value is recorded as 13/15 and the “patients who experienced transient tachycardia” value is 4/15. Besides, the “time to positive result (significant reduction in pruritus)” value in data set [2] turned out to be 60 s. Besides, the “positive result (reduction in pruritus)” value in data set [2] (two patients (neurodermatitis, insect bite)) is reported as “significant reduction in pruritus”.
